Source: patent US11046694B2, “Compounds and methods for treating bacterial infections” (Entasis Therapeutics, Inc., priority 2018, dated 2021)
Where a name gives a salt, the structure may show the parent alone.

Key:
E. coli (ATCC25922) = experiment: MIC against E. coli; settings: for MIC: Escherichia coli, ATCC25922, read-out: E. coli MIC (ATCC25922) (mg/L)
P. aeruginosa PBP1a = P. aeruginosa PBP1a (Pseudomonas aeruginosa, UniProt Q07806); format: biochemical; settings: P. aeruginosa PBP1a 60 nM, BOCILLIN FL 30 nM, pH 7.0
P. aeruginosa PBP1a, sequence (Q07806 whole entry): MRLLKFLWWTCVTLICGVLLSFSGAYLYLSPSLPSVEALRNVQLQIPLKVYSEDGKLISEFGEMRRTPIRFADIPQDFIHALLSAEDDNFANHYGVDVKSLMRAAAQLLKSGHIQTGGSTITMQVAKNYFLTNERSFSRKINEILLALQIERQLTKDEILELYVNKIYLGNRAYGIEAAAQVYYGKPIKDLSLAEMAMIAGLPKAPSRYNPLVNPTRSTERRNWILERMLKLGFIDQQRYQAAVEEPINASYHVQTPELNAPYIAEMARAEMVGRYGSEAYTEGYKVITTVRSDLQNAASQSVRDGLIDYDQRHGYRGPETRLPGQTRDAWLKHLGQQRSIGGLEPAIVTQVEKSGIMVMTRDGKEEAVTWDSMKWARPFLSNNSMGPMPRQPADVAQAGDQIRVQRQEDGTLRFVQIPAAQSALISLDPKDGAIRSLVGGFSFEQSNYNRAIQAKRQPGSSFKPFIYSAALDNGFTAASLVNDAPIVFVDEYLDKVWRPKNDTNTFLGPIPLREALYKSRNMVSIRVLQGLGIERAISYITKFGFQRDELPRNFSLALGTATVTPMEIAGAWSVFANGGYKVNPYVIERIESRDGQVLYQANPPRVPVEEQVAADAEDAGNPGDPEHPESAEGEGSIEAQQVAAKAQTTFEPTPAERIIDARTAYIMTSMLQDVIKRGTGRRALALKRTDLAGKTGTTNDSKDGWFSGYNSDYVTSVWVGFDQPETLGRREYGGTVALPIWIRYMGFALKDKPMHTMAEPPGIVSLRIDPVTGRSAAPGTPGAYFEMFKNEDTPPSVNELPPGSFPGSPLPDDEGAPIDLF

P. aeruginosa PBP2 = molecular target: T1, P. aeruginosa PBP2 (Pseudomonas aeruginosa, UniProt Q9X6V3); format: biochemical; settings: P. aeruginosa PBP2 300 nM, BOCILLIN FL 30 nM, pH 6.2
T1 sequence (Q9X6V3 1-646): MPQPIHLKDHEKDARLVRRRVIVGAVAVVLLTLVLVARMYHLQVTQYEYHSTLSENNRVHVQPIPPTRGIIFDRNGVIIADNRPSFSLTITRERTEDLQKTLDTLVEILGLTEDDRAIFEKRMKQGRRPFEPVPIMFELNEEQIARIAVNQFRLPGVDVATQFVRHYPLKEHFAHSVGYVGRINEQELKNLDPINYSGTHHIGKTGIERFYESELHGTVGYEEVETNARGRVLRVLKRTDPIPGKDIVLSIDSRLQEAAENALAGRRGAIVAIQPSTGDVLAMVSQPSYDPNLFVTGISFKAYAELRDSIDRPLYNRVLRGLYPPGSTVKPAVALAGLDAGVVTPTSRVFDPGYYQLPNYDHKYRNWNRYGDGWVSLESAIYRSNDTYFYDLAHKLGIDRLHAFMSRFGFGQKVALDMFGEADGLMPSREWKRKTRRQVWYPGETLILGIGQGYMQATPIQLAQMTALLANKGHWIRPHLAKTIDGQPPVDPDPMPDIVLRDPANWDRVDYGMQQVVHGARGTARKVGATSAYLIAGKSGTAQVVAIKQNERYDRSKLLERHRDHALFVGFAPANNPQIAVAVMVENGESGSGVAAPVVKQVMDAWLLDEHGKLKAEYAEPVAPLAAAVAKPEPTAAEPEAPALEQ

P. aeruginosa WT (PAO1) = experiment: MIC, CLSI broth microdilution, P. aeruginosa; format: cell-based; settings: CLSI broth microdilution; for MIC: Pseudomonas aeruginosa, PAO1, read-out: P. aeruginosa WT (PAO1) MIC
P. aeruginosa PBP3 = P. aeruginosa PBP3 (Pseudomonas aeruginosa, UniProt G3XD46); format: biochemical; settings: P. aeruginosa PBP3 60 nM, BOCILLIN FL 30 nM, pH 7.0
P. aeruginosa PBP3, sequence (G3XD46 whole entry): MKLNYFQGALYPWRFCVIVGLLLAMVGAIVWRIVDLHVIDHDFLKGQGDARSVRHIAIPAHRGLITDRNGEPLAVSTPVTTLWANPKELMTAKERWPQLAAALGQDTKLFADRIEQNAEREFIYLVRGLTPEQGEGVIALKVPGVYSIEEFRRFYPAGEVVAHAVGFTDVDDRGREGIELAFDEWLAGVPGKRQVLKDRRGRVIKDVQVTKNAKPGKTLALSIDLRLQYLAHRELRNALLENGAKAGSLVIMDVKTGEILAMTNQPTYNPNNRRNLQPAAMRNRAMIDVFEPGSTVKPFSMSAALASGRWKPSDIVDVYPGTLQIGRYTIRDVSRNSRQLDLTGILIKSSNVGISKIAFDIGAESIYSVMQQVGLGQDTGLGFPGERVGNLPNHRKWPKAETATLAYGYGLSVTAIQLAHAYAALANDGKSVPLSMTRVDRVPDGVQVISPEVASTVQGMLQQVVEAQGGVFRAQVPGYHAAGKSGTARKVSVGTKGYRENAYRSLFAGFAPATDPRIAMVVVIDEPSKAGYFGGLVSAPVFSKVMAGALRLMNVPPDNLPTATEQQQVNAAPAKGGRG

A. baumannii (ARC3495) = experiment: MIC against A. baumannii; settings: for MIC: Acinetobacter baumannii, read-out: A. baumannii MIC (ARC3495) (mg/L)
[1] = tested on: K. pneumoniae (ATCC700603); experiment: MIC against K. pneumoniae; settings: for MIC: Klebsiella pneumoniae, ATCC700603, read-out: K. pneumoniae MIC (ATCC700603)

Structure (SMILES) | MIC (E. coli (ATCC25922)) | PBP1a acylation rate, k(on) (M^−1 · s^−1) (P. aeruginosa PBP1a) | PBP2 acylation rate, k(on) (M^−1 · s^−1) (P. aeruginosa PBP2) | MIC (P. aeruginosa WT (PAO1)) | PBP3 acylation rate, k(on) (M^−1 · s^−1) (P. aeruginosa PBP3) | MIC (A. baumannii (ARC3495)) | MIC [1] | E. coli MIC (ATCC25922) (mg/L) (E. coli (ATCC25922)) | P. aeruginosa WT (PAO1) MIC (mg/L) (P. aeruginosa WT (PAO1)) | A. baumannii MIC (ARC3495) (mg/L) (A. baumannii (ARC3495)) | K. pneumoniae MIC (ATCC700603) [1]
CN/C(=N\OC(N)=O)[C@@H]1c2c(cnn2C)[C@@H]2CN1C(=O)N2OS(=O)(=O)O (racemic) [Example 14, pyridium (4R,8S)-8-((Z)—N′-(carbamoyloxy)-N-methylcarbamimidoyl)-1-methyl-6-oxo-4,8-dihydro-1H-4,7-methanopyrazolo[3,4-e][1,3]diazepin-5(6H)-yl hydrogen sulfate] | < 8 mg/L | ** (** represents a k(on) of 100 to 10,000 M^−1 · s^−1) | * (* represents a k(on) < 100 M^−1 · s^−1) | < 8 µg/mL | *** (*** represents a k(on) > 10,000 M^−1 · s^−1) | 8 to 16 mg/L | < 8 µg/mL |  |  |  | 
Cn1ncc2c1[C@@H](C1=NOC(C(=O)O)C1)N1C[C@@H]2N(OS(=O)(=O)O)C1=O (mixture of isomers) [Example 35, 3-((4R,8S)-1-methyl-6-oxo-5-(sulfooxy)-4,5,6,8-tetrahydro-1H-4,7-methanopyrazolo[3,4-e][1,3]diazepin-8-yl)-4,5-dihydroisoxazole-5-carboxylic acid] | < 8 mg/L | * (* represents a k(on) < 100 M^−1 · s^−1) | * (* represents a k(on) < 100 M^−1 · s^−1) | > 16 µg/mL | ** (** represents a k(on) of 100 to 10,000 M^−1 · s^−1) | > 16 mg/L | > 16 µg/mL |  |  |  | 
Cn1ncc2c1[C@@H](C1=NOC(Cc3ccccc3)C1)N1C[C@@H]2N(OS(=O)(=O)O)C1=O (mixture of isomers) [Example 36] | < 8 mg/L | ** (** represents a k(on) of 100 to 10,000 M^−1 · s^−1) | * (* represents a k(on) < 100 M^−1 · s^−1) | > 16 µg/mL | ** (** represents a k(on) of 100 to 10,000 M^−1 · s^−1) | > 16 mg/L | > 16 µg/mL |  |  |  | 
Cn1ncc2c1[C@@H](C1=NOC(Cc3ccccc3)C1)N1C[C@@H]2N(OS(=O)(=O)O)C1=O (mixture of isomers) [Example 37] |  | * (* represents a k(on) < 100 M^−1 · s^−1) | * (* represents a k(on) < 100 M^−1 · s^−1) |  | ** (** represents a k(on) of 100 to 10,000 M^−1 · s^−1) |  |  | *** (*** represents an MIC < 8 mg/L) | * (* represents an MIC > 16 mg/L) | * (* represents an MIC > 16 mg/L) | * (* represents an MIC > 16 mg/L)
CC1C([C@@H]2c3c(cnn3C)[C@@H]3CN2C(=O)N3OS(=O)(=O)O)=NOC1CO (mixture of isomers) [Example 39, Pyridium (4R,8S)-8-(5-(hydroxymethyl)-4-methyl-4,5-dihydroisoxazol-3-yl)-1-methyl-6-oxo-4,8-dihydro-1H-4,7-methanopyrazolo[3,4-e][1,3]diazepin-5(6H)-yl hydrogen sulfate] | < 8 mg/L | * (* represents a k(on) < 100 M^−1 · s^−1) | * (* represents a k(on) < 100 M^−1 · s^−1) | > 16 µg/mL | ** (** represents a k(on) of 100 to 10,000 M^−1 · s^−1) | > 16 mg/L | > 16 µg/mL |  |  |  | 
CN/C(=N\O)[C@@H]1c2c(cnn2C)[C@@H]2CN1C(=O)N2OS(=O)(=O)O (stereo in doubt) [Example 1, sodium (4R,8S)-8-((Z)—N′-hydroxy-N-methylcarbamimidoyl)-1-methyl-6-oxo-4,8-dihydro-1H-4,7-methanopyrazolo[3,4-e][1,3]diazepin-5(6H)-yl sulfate] | < 8 mg/L | ** (** represents a k(on) of 100 to 10,000 M^−1 · s^−1) | * (* represents a k(on) < 100 M^−1 · s^−1) | < 8 µg/mL | *** (*** represents a k(on) > 10,000 M^−1 · s^−1) | < 8 mg/L | < 8 µg/mL |  |  |  | 
CN/C(=N\O)[C@H]1c2c(cnn2C)[C@H]2CN1C(=O)N2OS(=O)(=O)O (stereo in doubt) [Example 41, Sodium (4S*,8R*)-8-((Z)—N′-hydroxy-N-methylcarbamimidoyl)-1-methyl-6-oxo-4,8-dihydro-1H-4,7-methanopyrazolo[3,4-e][1,3]diazepin-5(6H)-yl hydrogen sulfate] | < 8 mg/L | * (* represents a k(on) < 100 M^−1 · s^−1) | * (* represents a k(on) < 100 M^−1 · s^−1) | > 16 µg/mL | ** (** represents a k(on) of 100 to 10,000 M^−1 · s^−1) | > 16 mg/L | > 16 µg/mL |  |  |  | 
Cn1ncc2c1[C@@H](CN)N1C[C@@H]2N(OS(=O)(=O)O)C1=O [Comparator 1, reference compound] | < 8 mg/L | * (* represents a k(on) < 100 M^−1 · s^−1) | *** (*** represents a k(on) > 5,000 M^−1 · s^−1) | < 8 µg/mL | * (* represents a k(on) < 100 M^−1 · s^−1) | > 16 mg/L | < 8 µg/mL |  |  |  | 
CNC(=O)[C@@H]1c2c(cnn2C)[C@@H]2CN1C(=O)N2OS(=O)(=O)O [Comparator 2, reference compound] | < 8 mg/L | * (* represents a k(on) < 100 M^−1 · s^−1) | * (* represents a k(on) < 100 M^−1 · s^−1) | > 16 µg/mL | ** (** represents a k(on) of 100 to 10,000 M^−1 · s^−1) | > 16 mg/L | > 16 µg/mL |  |  |  | 
CN(C)/C(=N\O)[C@@H]1c2c(cnn2C)[C@@H]2CN1C(=O)N2OS(=O)(=O)O [Example 2, (4R,8S)-8-((Z)—N′-hydroxy-N,N-dimethylcarbamimidoyl)-1-methyl-6-oxo-4,8-dihydro-1H-4,7-methanopyrazolo[3,4-e][1,3]diazepin-5(6H)-yl hydrogen sulfate] | 8 to 16 mg/L | ** (** represents a k(on) of 100 to 10,000 M^−1 · s^−1) | * (* represents a k(on) < 100 M^−1 · s^−1) | > 16 µg/mL | *** (*** represents a k(on) > 10,000 M^−1 · s^−1) | 8 to 16 mg/L | 8 to 16 µg/mL |  |  |  | 
Cn1ncc2c1[C@@H](/C(N)=N/O)N1C[C@@H]2N(OS(=O)(=O)[O-])C1=O.[Na+] [Example 3, Sodium (4R,8S)-8-((Z)—N′-hydroxycarbamimidoyl)-1-methyl-6-oxo-4,8-dihydro-1H-4,7-methanopyrazolo[3,4-e][1,3]diazepin-5(6H)-yl sulfate] | < 8 mg/L | * (* represents a k(on) < 100 M^−1 · s^−1) | * (* represents a k(on) < 100 M^−1 · s^−1) | > 16 µg/mL | ** (** represents a k(on) of 100 to 10,000 M^−1 · s^−1) | > 16 mg/L | < 8 µg/mL |  |  |  | 
CN/C(=N\OC)[C@@H]1c2c(cnn2C)[C@@H]2CN1C(=O)N2OS(=O)(=O)O [Example 4, (4R,8S)-8-((Z)—N′-methoxy-N-methylcarbamimidoyl)-1-methyl-6-oxo-4,8-dihydro-1H-4,7-methanopyrazolo[3,4-e][1,3]diazepin-5(6H)-yl hydrogen sulfate] | < 8 mg/L | ** (** represents a k(on) of 100 to 10,000 M^−1 · s^−1) | * (* represents a k(on) < 100 M^−1 · s^−1) | > 16 µg/mL | *** (*** represents a k(on) > 10,000 M^−1 · s^−1) | > 16 mg/L | > 16 µg/mL |  |  |  | 
Cn1ncc2c1[C@@H](C1=NOC(CO)C1)N1C[C@@H]2N(OS(=O)(=O)O)C1=O (stereo partly drawn) [Example 38, (4R,8S)-8-(5-(hydroxymethyl)-4,5-dihydroisoxazol-3-yl)-1-methyl-6-oxo-4,8-dihydro-1H-4,7-methanopyrazolo[3,4-e][1,3]diazepin-5(6H)-yl hydrogen sulfate] | 8 to 16 mg/L | * (* represents a k(on) < 100 M^−1 · s^−1) | * (* represents a k(on) < 100 M^−1 · s^−1) | > 16 µg/mL | * (* represents a k(on) < 100 M^−1 · s^−1) | > 16 mg/L | > 16 µg/mL |  |  |  | 
